Where two headings read alike, the source gives them in different places.
Legend:
GR = target: T1, GR (Homo sapiens, UniProt P04150); assay: GR competitive radioligand binding assay
T1 sequence (P04150 1-777): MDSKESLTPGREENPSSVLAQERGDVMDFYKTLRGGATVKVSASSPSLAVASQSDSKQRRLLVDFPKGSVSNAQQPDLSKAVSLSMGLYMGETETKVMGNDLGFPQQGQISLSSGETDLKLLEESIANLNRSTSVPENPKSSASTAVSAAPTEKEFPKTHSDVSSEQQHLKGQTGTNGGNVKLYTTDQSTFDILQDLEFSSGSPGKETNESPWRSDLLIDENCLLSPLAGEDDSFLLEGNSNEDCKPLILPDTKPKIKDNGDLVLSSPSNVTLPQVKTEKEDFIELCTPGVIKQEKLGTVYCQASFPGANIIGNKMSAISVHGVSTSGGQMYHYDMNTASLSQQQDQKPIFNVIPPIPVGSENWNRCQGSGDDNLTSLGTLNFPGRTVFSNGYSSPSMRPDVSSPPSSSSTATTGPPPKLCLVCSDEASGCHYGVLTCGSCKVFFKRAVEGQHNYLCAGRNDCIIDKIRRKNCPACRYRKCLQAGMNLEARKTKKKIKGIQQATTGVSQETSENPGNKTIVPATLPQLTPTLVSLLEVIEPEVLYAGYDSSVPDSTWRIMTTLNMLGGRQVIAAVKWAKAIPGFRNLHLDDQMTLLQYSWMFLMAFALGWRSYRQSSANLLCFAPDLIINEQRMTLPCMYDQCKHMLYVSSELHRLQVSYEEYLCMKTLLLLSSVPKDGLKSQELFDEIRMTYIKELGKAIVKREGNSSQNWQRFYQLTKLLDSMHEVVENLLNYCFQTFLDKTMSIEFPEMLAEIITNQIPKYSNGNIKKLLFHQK
Protocol: Reactions were conducted in 96-well plates in TEGM (10 mM Tris-HCl pH 7.2, 1 mM EDTA, 10% glycerol, 1 mM β-mercaptoethanol, 10 mM sodium molybdate). […] All reactions were set up in duplicates and incubated at 4°C overnight. Receptor-bound ^3H-DEX was isolated by ultrafiltration using a Unifilter-96 GF/C filter plate (Perkin Elmer), eluted in 30 µL Microscint-20 and quantified using a scintillation counter (Top Count).

MCF7 cells = assay: MCF7 cell viability assay (CellTiter-Glo); format: cell-based, human; conditions: for IC50 / EC50: Homo sapiens; for EC50: absence of exogenous estradiol, Figure 1E, read-out: MCF7 cell viability EC50 (-E2)
MR = target: T2, MR (Homo sapiens, UniProt P08235); assay: MR transcriptional reporter assay, agonist mode (HEPG2 cells); format: cell-based; conditions: % of maximal aldosterone-stimulated activity
T2 construct: expressed in transfected cells; host or cells: HEPG2
T2 sequence (P08235 1-984): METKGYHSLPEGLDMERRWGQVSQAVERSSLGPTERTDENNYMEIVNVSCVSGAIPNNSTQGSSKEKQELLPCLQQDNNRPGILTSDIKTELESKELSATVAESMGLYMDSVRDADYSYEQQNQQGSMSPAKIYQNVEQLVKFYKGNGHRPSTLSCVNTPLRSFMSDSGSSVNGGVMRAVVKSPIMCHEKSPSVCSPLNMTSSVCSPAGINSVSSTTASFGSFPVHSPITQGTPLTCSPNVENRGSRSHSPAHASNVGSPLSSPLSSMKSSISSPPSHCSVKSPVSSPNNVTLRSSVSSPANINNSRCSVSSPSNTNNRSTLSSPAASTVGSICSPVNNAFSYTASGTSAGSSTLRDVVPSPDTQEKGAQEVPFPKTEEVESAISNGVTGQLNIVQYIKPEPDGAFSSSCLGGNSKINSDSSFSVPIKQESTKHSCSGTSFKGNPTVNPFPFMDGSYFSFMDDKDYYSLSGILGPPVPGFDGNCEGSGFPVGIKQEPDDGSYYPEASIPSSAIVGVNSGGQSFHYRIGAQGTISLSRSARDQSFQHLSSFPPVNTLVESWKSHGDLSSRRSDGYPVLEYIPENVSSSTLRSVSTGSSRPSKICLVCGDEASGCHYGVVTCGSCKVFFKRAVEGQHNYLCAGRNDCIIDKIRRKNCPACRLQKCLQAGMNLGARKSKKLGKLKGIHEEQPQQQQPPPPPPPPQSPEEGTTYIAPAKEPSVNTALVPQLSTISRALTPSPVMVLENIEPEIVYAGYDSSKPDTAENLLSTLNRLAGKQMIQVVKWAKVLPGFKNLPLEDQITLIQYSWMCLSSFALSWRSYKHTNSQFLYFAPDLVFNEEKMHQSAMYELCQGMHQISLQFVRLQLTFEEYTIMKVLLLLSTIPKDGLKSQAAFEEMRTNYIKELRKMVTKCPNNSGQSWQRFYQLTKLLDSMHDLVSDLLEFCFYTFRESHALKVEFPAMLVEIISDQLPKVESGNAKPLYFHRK
Protocol: Transcriptional assays were performed by seeding 100 μL of cells at a density of 250,000 cells/mL into 96-well cell culture plates in RPMI 1640 supplemented with 5% charcoal-stripped serum and allowed to attach overnight. […] Triplicate transfections were performed using 418 ng reporter vector (2X PRE-Luciferase for PR-A and PR-B, MMTV-Luciferase for MR), 50 ng CMVpRL (normalization vector), 10 ng NHR expression vector (CMX-PR-A, pCDNA-PR-B or 6R-MR), and 0.7 μL lipofectin. […] The final agonist concentration used in the antagonist assays was 1 nM. Following 24 hr incubation, the medium was removed and the cells were lysed in 40 μL of lysis buffer (25 mM Tris Phosphate, 2 mM CDTA, 10% Glycerol, 0.5% Triton X-100, 2 mM DTT). Firefly luciferase activity was measured immediately following the addition of 40 μL luciferase buffer (20 mM tricine, 0.1 mM EDTA, 1.07 mM (MgCO3)4 Mg(OH)2· 5H2O, 2.67 mM MgSO4, 33.3 mM DTT, 270 μM Coenzyme A, 470 μM luciferin, 530 μM ATP).

MCF7 ER.WT cells = assay: Cell viability, MCF7 ER.WT cells (7 days); format: cell-based; conditions: Homo sapiens; for EC50: absence of estrogen; for IC50: presence of estrogen (0.1 nM), read-out: Cell viability IC50, ER.WT +E2
[1] = tested on: Ishikawa endometrial cells; assay: Alkaline phosphatase activity in Ishikawa endometrial cells; format: cell-based, human; conditions: absence of estrogen
[2] = tested on: Doxycycline-inducible MCF7 cells (Vector); assay: Cell viability, doxycycline-inducible MCF7 cells, vector control; format: cell-based; conditions: Homo sapiens, MCF7, 168 h, 7 days; for IC50: 0.1 nM E2, 10 ng/ml doxycycline; for EC50: estrogen-depleted medium, 10 ng/ml doxycycline, read-out: Cell viability EC50, Vector -E2
[3] = 120 h, MCF7, 5 d incubation, read-out: Cell viability CellTiter-Glo IC50
[4] = MCF7, 120 h, read-out: MCF7 cell viability IC50 (+ 0.1nM E2), presence of 0.1 nM estradiol, 5 day, Figure 1F
[5] = MCF7, 168 h, 7 days, read-out: Cell viability EC50, ER.WT -E2

## CC/C(=C(\c1ccc(O)cc1)c1ccc(OCCN(C)C)cc1)c1ccccc1 [4-OH Tam, 4-hydroxytamoxifen]
GR; 3.0 nM 3H-dexamethasone, read-out: GR IC50
  IC50: > 1800 nM
MCF7 cells; [3]
  IC50: 0.53 ± 0.25 nM
MCF7 cells; [4]
  IC50: 30 nM
MCF7 cells; MCF7, 120 h, 5 day
  EC50: 3.9 nM
MCF7 cells; MCF7, 5 d incubation
  Cell viability CellTiter-Glo Emax: 48.0 ± 4.7 % E2
MR
  Emax: 0%
MCF7 ER.WT cells; [5]
  EC50: 3.2 nM
MCF7 ER.WT cells; MCF7, 168 h, 7 days
  IC50: 19 nM
[1]
  Alkaline phosphatase activity: robustly increases alkaline phosphatase activity

## CC/C(=C(/c1ccc(/C=C/C(=O)O)cc1)c1ccc2[nH]ncc2c1)c1ccc(F)cc1Cl [GDC-0810]
MCF7 cells; [3]
  IC50: 2.5 ± 2.1 nM
MCF7 cells; [4]
  IC50: 25 nM
MCF7 cells; MCF7, 120 h, 5 day
  EC50: 1 nM
MCF7 cells; MCF7, 5 d incubation
  Cell viability CellTiter-Glo Emax: 24.6 ± 3.3 % E2
MR
  Emax: 0.09 ± 0.16%
MCF7 ER.WT cells; [5]
  EC50: 1 nM
MCF7 ER.WT cells; MCF7, 168 h, 7 days
  IC50: 28 nM
MCF7 ER.WT cells; MCF7, Figure 6—figure supplement 1D, read-out: Cell viability EC50, ER.WT (-E2)
  EC50: 0.7 nM
[1]
  Alkaline phosphatase activity: modestly increases alkaline phosphatase activity
[2]
  IC50: 15 nM
  EC50: 1 nM

## C[C@]12CC[C@@H]3c4ccc(O)cc4C[C@@H](CCCCCCCCC[S+]([O-])CCCC(F)(F)C(F)(F)F)[C@H]3[C@@H]1CC[C@@H]2O (stereo partly drawn) [Fulvestrant]
GR
  IC50: 817 nM
MCF7 cells; [3]
  IC50: 0.56 ± 0.7 nM
MCF7 cells; [4]
  IC50: 9 nM
MCF7 cells; MCF7, 120 h, 5 day
  EC50: 0.5 nM
MCF7 cells; MCF7, 5 d incubation
  Cell viability CellTiter-Glo Emax: 25.4 ± 3.7 % E2
MCF7 ER.WT cells; [5]
  EC50: 1.1 nM
MCF7 ER.WT cells; MCF7, 168 h, 7 days
  IC50: 23 nM
[1]
  Alkaline phosphatase activity: shows no such effect
[2]
  IC50: 7.2 nM
  EC50: 0.8 nM

Reference: publication PMC4961458 (eLife, 2016)
